Measured values taken from patent US20050112573A1, “Method of detecting toxic substance” (priority 2001, published 2005).

Tested on: yeast genes (level of expressed mRNA)
Experiment: DNA chip analysis of expressed mRNA of yeast genes after 2 h culture with a toxic chemical substance
Format: cell-based, Saccharomyces cerevisiae S288C
Settings: for The level of expressed mRNA in the presence of chemical substance/ (ratio to absence of chemical substance): stress protein genes, DNA chip
Method in brief: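 S. cerevisiae S288C grown at 25° C in YPD; toxicant added at log phase at growth-inhibitory, non-lethal levels for 2 h, untreated cells as control. Poly(A) mRNA reverse-transcribed with Cy3/Cy5-dUTP, hybridized to whole-genome chip at 65° C >12 h; value is fluorescence ratio versus untreated.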

C=CC=O [(14), acrolein]
The level of expressed mRNA in the presence of chemical substance/The level of expressed mRNA in the absence of chemical substance (yeast gene YIL140W): 0.9 | The level of expressed mRNA in the presence of chemical substance/ (in its absence), gene YJL070C (yeast gene YJL070C, ratio of DNA chip fluorescence intensity to that without chemical substance): 1.3 | The level of expressed mRNA in the presence of chemical substance/The level of expressed mRNA in the absence of chemical substance (yeast gene YJL073W): 1.1 | The level of expressed mRNA in the presence of chemical substance/The level of expressed mRNA in the absence of chemical substance (yeast gene YJL089W): 1.8 | The level of expressed mRNA in the presence of chemical substance/ (ratio to absence), gene YJL096W (yeast gene YJL096W, mitochondria-located protein genes, 2 h culture with chemical): 2.1 | The level of expressed mRNA in the presence of chemical substance/The level of expressed mRNA in the absence of chemical substance (yeast gene YJL116C): 2.6 | The level of expressed mRNA in the presence of chemical substance/ (ratio to absence of chemical substance) (yeast gene YJL158C): 0.5 | The level of expressed mRNA in the presence of chemical substance/ (in its absence), gene YJL167W (yeast gene YJL167W, ratio of DNA chip fluorescence intensity to that without chemical substance): 0.9 | The level of expressed mRNA in the presence of chemical substance/ (ratio to absence), gene YJL180C (yeast gene YJL180C, mitochondria-located protein genes, 2 h culture with chemical): 1.4 | The level of expressed mRNA in the presence of chemical substance/ (in its absence), gene YJL216C (yeast gene YJL216C, ratio of DNA chip fluorescence intensity to that without chemical substance): 1.1 | The level of expressed mRNA in the presence of chemical substance/The level of expressed mRNA in the absence of chemical substance (yeast gene YJR004C): 0.7 | The level of expressed mRNA in the presence of chemical substance/The level of expressed mRNA in the absence of chemical substance (yeast gene YJR086W): 2.2 | The level of expressed mRNA in the presence of chemical substance/ (ratio to absence of chemical substance) (yeast gene YJR090C): 1.0 | The level of expressed mRNA in the presence of chemical substance/The level of expressed mRNA in the absence of chemical substance (yeast gene YKL008C): 0.8 | The level of expressed mRNA in the presence of chemical substance/The level of expressed mRNA in the absence of chemical substance (yeast gene YKL013C): 1.4 | The level of expressed mRNA in the presence of chemical substance/The level of expressed mRNA in the absence of chemical substance (yeast gene YKL039W): 0.8 | The level of expressed mRNA in the presence of chemical substance/The level of expressed mRNA in the absence of chemical substance (yeast gene YKL041W): 1.3 | The level of expressed mRNA in the presence of chemical substance/The level of expressed mRNA in the absence of chemical substance (yeast gene YKL096W): 0.5 | The level of expressed mRNA in the presence of chemical substance/ (ratio to absence of chemical substance) (yeast gene YKL164C): 0.3 | The level of expressed mRNA in the presence of chemical substance/The level of expressed mRNA in the absence of chemical substance (yeast gene YKL165C): 0.8 | The level of expressed mRNA in the presence of chemical substance/The level of expressed mRNA in the absence of chemical substance (yeast gene YKL193C): 1.2 | The level of expressed mRNA in the presence of chemical substance/ (in its absence), gene YKR009C (yeast gene YKR009C, ratio of DNA chip fluorescence intensity to that without chemical substance): 1.0 | The level of expressed mRNA in the presence of chemical substance/ (in its absence), gene YKR034W (yeast gene YKR034W, ratio of DNA chip fluorescence intensity to that without chemical substance): 1.1 | The level of expressed mRNA in the presence of chemical substance/ (ratio to absence of chemical substance) (yeast gene YKR053C): 1.3 | The level of expressed mRNA in the presence of chemical substance/ in its absence, gene YKR058W (yeast gene YKR058W, energy system protein genes, 2 h culture with the chemical, ratio to control without chemical): 1.3 | The level of expressed mRNA in the presence of chemical substance/ (in its absence), gene YLR006C (yeast gene YLR006C, ratio of DNA chip fluorescence intensity to that without chemical substance): 1.0 | The level of expressed mRNA in the presence of chemical substance/ (ratio to absence of chemical substance) (yeast gene YLR006C): 1.0 | The level of expressed mRNA in the presence of chemical substance/The level of expressed mRNA in the absence of chemical substance (yeast gene YLR120C): 0.8 | The level of expressed mRNA in the presence of chemical substance/The level of expressed mRNA in the absence of chemical substance (yeast gene YLR136C): 0.7 | The level of expressed mRNA in the presence of chemical substance/The level of expressed mRNA in the absence of chemical substance (yeast gene YLR178C): 2.8 | The level of expressed mRNA in the presence of chemical substance/The level of expressed mRNA in the absence of chemical substance (yeast gene YLR250W): 2.5 | The level of expressed mRNA in the presence of chemical substance/ in its absence, gene YLR295C (yeast gene YLR295C, energy system protein genes, 2 h culture with the chemical, ratio to control without chemical): 1.2 | The level of expressed mRNA in the presence of chemical substance/ (ratio to absence), gene YLR295C (yeast gene YLR295C, mitochondria-located protein genes, 2 h culture with chemical): 1.2 | The level of expressed mRNA in the presence of chemical substance/The level of expressed mRNA in the absence of chemical substance (yeast gene YLR327C): 1.5 | The level of expressed mRNA in the presence of chemical substance/ (in its absence), gene YLR351C (yeast gene YLR351C, ratio of DNA chip fluorescence intensity to that without chemical substance): 1.4 | The level of expressed mRNA in the presence of chemical substance/The level of expressed mRNA in the absence of chemical substance (yeast gene YLR356W): 2.2 | The level of expressed mRNA in the presence of chemical substance/The level of expressed mRNA in the absence of chemical substance (yeast gene YLR362W): 1.2 | The level of expressed mRNA in the presence of chemical substance/ (in its absence), gene YLR375W (yeast gene YLR375W, ratio of DNA chip fluorescence intensity to that without chemical substance): 0.9 | The level of expressed mRNA in the presence of chemical substance/The level of expressed mRNA in the absence of chemical substance (yeast gene YLR391W): 0.5 | The level of expressed mRNA in the presence of chemical substance/The level of expressed mRNA in the absence of chemical substance (yeast gene YLR429W): 0.7 | The level of expressed mRNA in the presence of chemical substance/ in its absence, gene YML129C (yeast gene YML129C, energy system protein genes, 2 h culture with the chemical, ratio to control without chemical): 1.4 | The level of expressed mRNA in the presence of chemical substance/ (ratio to absence), gene YML129C (yeast gene YML129C, mitochondria-located protein genes, 2 h culture with chemical): 1.4 | The level of expressed mRNA in the presence of chemical substance/The level of expressed mRNA in the absence of chemical substance (yeast gene YMR004W): 2.2 | The level of expressed mRNA in the presence of chemical substance/ (ratio to absence), gene YMR023C (yeast gene YMR023C, mitochondria-located protein genes, 2 h culture with chemical): 1.6 | The level of expressed mRNA in the presence of chemical substance/The level of expressed mRNA in the absence of chemical substance (yeast gene YMR094W): 2.8 | The level of expressed mRNA in the presence of chemical substance/The level of expressed mRNA in the absence of chemical substance (yeast gene YMR104C): 1.1 | The level of expressed mRNA in the presence of chemical substance/ (ratio to absence of chemical substance) (yeast gene YMR186W): 0.6 | The level of expressed mRNA in the presence of chemical substance/The level of expressed mRNA in the absence of chemical substance (yeast gene YMR219W): 0.5 | The level of expressed mRNA in the presence of chemical substance/The level of expressed mRNA in the absence of chemical substance (yeast gene YMR226C): 1.6 | The level of expressed mRNA in the presence of chemical substance/ in its absence, gene YMR267W (yeast gene YMR267W, energy system protein genes, 2 h culture with the chemical, ratio to control without chemical): 1.0 | The level of expressed mRNA in the presence of chemical substance/ (ratio to absence), gene YMR267W (yeast gene YMR267W, mitochondria-located protein genes, 2 h culture with chemical): 1.0 | The level of expressed mRNA in the presence of chemical substance/ in its absence, gene YMR267W (yeast gene YMR267W, ratio of DNA chip fluorescence intensity to that without chemical substance): 1.0 | The level of expressed mRNA in the presence of chemical substance/The level of expressed mRNA in the absence of chemical substance (yeast gene YMR275C): 0.8 | The level of expressed mRNA in the presence of chemical substance/The level of expressed mRNA in the absence of chemical substance (yeast gene YMR276W): 1.2 | The level of expressed mRNA in the presence of chemical substance/ (in its absence), gene YMR278W (yeast gene YMR278W, ratio of DNA chip fluorescence intensity to that without chemical substance): 0.8 | The level of expressed mRNA in the presence of chemical substance/ (in its absence), gene YMR293C (yeast gene YMR293C, ratio of DNA chip fluorescence intensity to that without chemical substance): 1.3 | The level of expressed mRNA in the presence of chemical substance/The level of expressed mRNA in the absence of chemical substance (yeast gene YMR314W): 1.0
